{"source": "paper PMC4232510", "about": "“Identification of Functionally Important Residues of the Rat P2X4 Receptor by Alanine Scanning Mutagenesis of the Dorsal Fin and Left Flipper Domains” (PLoS ONE, 2014)", "test_in_all_cases": "whole-cell patch clamp, HEK293T cells expressing mutant", "assay_type_in_all_cases": "cell-based", "settings_in_all_cases": "for relative responsiveness: 100 µM agonist 2 s, relative to ATP (100%)", "key": {"rP2X4R L206A mutant": {"molecular_target": "T1, rP2X4R L206A mutant (Rattus norvegicus, UniProt P51577, L206A)", "T1 construct": "expressed in transfected cells; host or cells: HEK293T", "T1 sequence (P51577 1-388 L206A)": "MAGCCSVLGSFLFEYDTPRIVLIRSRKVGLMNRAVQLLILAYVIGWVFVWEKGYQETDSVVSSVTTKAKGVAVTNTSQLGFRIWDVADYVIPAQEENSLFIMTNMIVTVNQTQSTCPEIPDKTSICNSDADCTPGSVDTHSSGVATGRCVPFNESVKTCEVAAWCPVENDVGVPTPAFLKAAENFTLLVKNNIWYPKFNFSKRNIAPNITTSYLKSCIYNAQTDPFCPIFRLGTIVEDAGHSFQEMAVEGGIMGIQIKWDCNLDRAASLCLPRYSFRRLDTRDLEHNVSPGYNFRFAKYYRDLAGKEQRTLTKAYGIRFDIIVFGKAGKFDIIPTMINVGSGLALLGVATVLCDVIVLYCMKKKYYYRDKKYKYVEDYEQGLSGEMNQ", "description": "(§1) To express the recombinant channels, we used human embryonic kidney (HEK) 293T cells (American Type Culture Collection, Rockville, MD, USA) grown in Dulbecco modified Eagle’s medium (Thermo Fisher Scientific, Waltham, MA) supplemented with 10% fetal bovine serum (Sigma-Aldrich, St Louis, MO), 50 U/ml penicillin and 50 µg/ml streptomycin (both Thermo Fisher Scientific, Waltham, MA) in a humidified 5% CO2 and 95% air at 37°C. Cells were cultured in 75 cm^2 plastic culture flasks (NUNC, Rochester, NY) for 36–72 hours until reaching 80–95% confluence. Before the day of transfection, the cells were plated on 35 mm culture dishes (Sarstedt, Newton, NC) and incubated at 37°C for at least 24 h. Transfection was done using 2 µg of either WT or mutant receptor DNA with 2 µl of JetPrime reagent in 2 ml of Dulbecco modified Eagle’s medium, according to manufacturer’s instructions (PolyPlus-transfection, Illkirch, France). Transfected cells were identified by the fluorescence signal of EGFP using the Olympus IX71 inverted research microscope with fluorescence illuminators (Model IX71; Olympus, Melville, NY).\n(§2) cDNAs encoding the sequences of the rP2X4 and mutated subunits were subcloned into the pIRES2-EGFP vector (Clontech, Mountain View, CA, USA). To generate the mutants, oligonucleotides (synthesized and provided by VBC-Genomics, Vienna, Austria or Sigma Aldrich) containing specific mutagenesis mismatches were introduced into the rP2X4/pIRES2-EGFP template using PfU Ultra DNA polymerase (Thermo Fisher Scientific). A High-Speed Plasmid Mini Kit (Geneaid, Taipei City, Taiwan) was used to isolate the plasmids for transfection. Dye terminator cycle sequencing (ABI PRISM 3100, Applied Biosystems, Foster City, CA) was used to identify and verify the presence of the mutations. The sequencing was performed by the DNA Sequencing Laboratory, Institute of Microbiology, ASCR, Prague.\n(§3) ATP-induced currents were recorded from whole cells clamped to −60 mV using an Axopatch 200B patch-clamp amplifier (Axon Instruments, Union City, CA). The recordings were captured and stored using the Digidata 1322A and pClamp9 software package (Axon Instruments). During the experiments, the cell culture was perfused with a bath solution containing: 142 mM NaCl, 3 mM KCl, 2 mM CaCl2, 1 mM MgCl2, 10 mM 4-(2-Hydroxyethyl)piperazine-1-ethanesulfonic acid (HEPES) and 10 mM D-glucose, adjusted to pH 7.3 with 1 M NaOH. The patch electrodes were filled with a solution containing: 154 mM CsCl, 11 mM EGTA and 10 mM HEPES, adjusted to pH 7.2 with 1.6 M CsOH. The whole-cell configuration was used to abolish the influence of natively present metabotropic receptors for ATP and we used intracellular cesium to block any kind of possible background potassium conductance. Potency of ATP was measured based on the activation of naïve (not previously stimulated) receptors using a short (2–5 s) application of various concentrations of ATP. The results are expressed as molar concentration of ATP required to produce 50% of the maximal response (EC50). One or two responses were recorded from one cell, if not otherwise stated, and responses from different cells were pooled. The maximum current amplitude (Imax) was measured in response to application of supramaximal concentrations (100–1000 µM) of ATP. Responsiveness to P2XR agonists 2-MeS-ATP, ATPγS, BzATP, and α,β-meATP, all applied in 100 µM concentration, was expressed as percentage of response in comparison to 100 µM ATP treatment for selected mutants. In all mutants, the whole cell currents were also measured in the presence of 3 µM IVM, which was dissolved in dimethyl sulfoxide, stored in stock solutions at 10 mM, and diluted to required concentrations in bath solution in the day of experiment. The control and drug containing solutions were applied via a rapid (exchange time 30–40 ms) perfusion system (RSC-200, BIOLOGIC, Claix, France). All other chemicals are from Sigma-Aldrich. […]"}, "rP2X4R L214A mutant": {"molecular_target": "T2, rP2X4R L214A mutant (Rattus norvegicus, UniProt P51577, L214A)", "T2 construct": "expressed in transfected cells; host or cells: HEK293T", "T2 sequence (P51577 1-388 L214A)": "T1 sequence (P51577 1-388 L206A) with A206L, L214A", "description": "as §1, §2, §3"}, "rP2X4R P290A mutant": {"molecular_target": "T3, rP2X4R P290A mutant (Rattus norvegicus, UniProt P51577, P290A)", "T3 construct": "expressed in transfected cells; host or cells: HEK293T", "T3 sequence (P51577 1-388 P290A)": "T1 sequence (P51577 1-388 L206A) with A206L, P290A", "description": "as §1, §2, §3"}, "[1]": {"settings": "100 µM ATP 60 s, biexponential fit"}, "[2]": {"settings": "contribution of τdes2, 100 µM ATP 60 s"}, "[3]": {"settings": "decay after removal of 1 or 3 µM ATP, 3 µM IVM"}, "[4]": {"settings": "naïve receptors, 2–5 s application"}, "[5]": {"settings": "3 µM IVM 4-6 min vs IVM-untreated"}}, "note": "Positions count from the first letter of the chain named."}
{"compound": "2′(3′-O-(4-Benzoylbenzoyl)adenosine 5′-triphosphate [BzATP]", "values": [{"measurement": "relative responsiveness", "setting": "rP2X4R L206A mutant", "value": "33.7±8.0", "unit": "%"}, {"measurement": "relative responsiveness", "setting": "rP2X4R L214A mutant", "value": "5.9±0.5", "unit": "%"}, {"measurement": "relative responsiveness", "setting": "rP2X4R P290A mutant", "value": "16.9±3.2", "unit": "%"}]}
{"compound": "CSc1nc(N)c2ncn([C@@H]3O[C@H](COP(=O)(O)OP(=O)(O)OP(=O)(O)O)[C@@H](O)[C@H]3O)c2n1", "note": "[2-MeS-ATP, 2-(Methylthio)adenosine 5′-triphosphate]", "values": [{"measurement": "relative responsiveness", "setting": "rP2X4R L206A mutant", "value": "68.3±6.5", "unit": "%"}, {"measurement": "relative responsiveness", "setting": "rP2X4R L214A mutant", "value": "21.4±1.7", "unit": "%"}, {"measurement": "relative responsiveness", "setting": "rP2X4R P290A mutant", "value": "50.7±3.7", "unit": "%"}]}
{"compound": "Nc1ncnc2c1ncn2[C@@H]1O[C@H](COP(=O)(O)OP(=O)(O)OP(=O)(O)O)[C@@H](O)[C@H]1O", "note": "[ATP]", "values": [{"measurement": "τdes1", "setting": "rP2X4R L206A mutant; [1]", "value": "1.1 ± 0.2", "unit": "s"}, {"measurement": "τdes2", "setting": "rP2X4R L206A mutant; [1]", "value": "8.9 ± 2.2", "unit": "s"}, {"measurement": "Imax", "setting": "rP2X4R L206A mutant; 100–1000 µM ATP", "value": "2.4 ± 0.3", "unit": "nA"}, {"measurement": "Imax+IVM", "setting": "rP2X4R L206A mutant; ATP after 3 µM IVM 4-6 min", "value": "4.8 ± 0.8", "unit": "nA"}, {"measurement": "A2 /(A1+A2)", "setting": "rP2X4R L206A mutant; [2]", "value": "70 ± 4", "unit": "%"}, {"measurement": "τoff +IVM", "setting": "rP2X4R L206A mutant; [3]", "value": "9.0 ± 1.4", "unit": "s"}, {"measurement": "EC50", "setting": "rP2X4R L206A mutant; [4]", "value": "10 ± 4.1", "unit": "µM"}, {"measurement": "τdes", "setting": "rP2X4R L206A mutant; weighted, 100 µM ATP 60 s", "value": "6.3 ± 1.6", "unit": "s"}, {"measurement": "EC50 rightward shift compared to WT", "setting": "rP2X4R L214A mutant", "value": "approximately 10 fold"}, {"measurement": "τdes1", "setting": "rP2X4R L214A mutant; [1]", "value": "1.9 ± 0.4", "unit": "s"}, {"measurement": "τdes2", "setting": "rP2X4R L214A mutant; [1]", "value": "12.6 ± 1.9", "unit": "s"}, {"measurement": "Imax", "setting": "rP2X4R L214A mutant; 100–1000 µM ATP", "value": "1.0 ± 0.2", "unit": "nA"}, {"measurement": "Imax+IVM", "setting": "rP2X4R L214A mutant; ATP after 3 µM IVM 4-6 min", "value": "3.9 ± 0.8", "unit": "nA"}, {"measurement": "A2 /(A1+A2)", "setting": "rP2X4R L214A mutant; [2]", "value": "62 ± 3", "unit": "%"}, {"measurement": "τoff +IVM", "setting": "rP2X4R L214A mutant; [3]", "value": "3.4 ± 0.6", "unit": "s"}, {"measurement": "EC50", "setting": "rP2X4R L214A mutant; [4]", "value": "25 ± 5.7", "unit": "µM"}, {"measurement": "τdes", "setting": "rP2X4R L214A mutant; weighted, 100 µM ATP 60 s", "value": "8.8 ± 1.3", "unit": "s"}, {"measurement": "τdes1", "setting": "rP2X4R P290A mutant; [1]", "value": "0.8 ± 0.1", "unit": "s"}, {"measurement": "τdes2", "setting": "rP2X4R P290A mutant; [1]", "value": "12.0 ± 1.5", "unit": "s"}, {"measurement": "Imax", "setting": "rP2X4R P290A mutant; 100–1000 µM ATP", "value": "0.9 ± 0.1", "unit": "nA"}, {"measurement": "Imax+IVM", "setting": "rP2X4R P290A mutant; ATP after 3 µM IVM 4-6 min", "value": "3.3 ± 0.5", "unit": "nA"}, {"measurement": "A2 /(A1+A2)", "setting": "rP2X4R P290A mutant; [2]", "value": "53 ± 3", "unit": "%"}, {"measurement": "τoff +IVM", "setting": "rP2X4R P290A mutant; [3]", "value": "13 ± 1.4", "unit": "s"}, {"measurement": "EC50", "setting": "rP2X4R P290A mutant; [4]", "value": "8 ± 3.4", "unit": "µM"}, {"measurement": "τdes", "setting": "rP2X4R P290A mutant; weighted, 100 µM ATP 60 s", "value": "6.6 ± 0.5", "unit": "s"}]}
{"compound": "Nc1ncnc2c1ncn2[C@@H]1O[C@H](CO[P@](=O)(O)O[P@](=O)(O)O[P@@](=O)(O)S)[C@@H](O)[C@H]1O", "note": "[ATPγS, Adenosine 5′-(γ-thio)triphosphate]", "values": [{"measurement": "relative responsiveness", "setting": "rP2X4R L206A mutant", "value": "39.6±8.4", "unit": "%"}, {"measurement": "relative responsiveness", "setting": "rP2X4R L214A mutant", "value": "7.9±2.0", "unit": "%"}, {"measurement": "relative responsiveness", "setting": "rP2X4R P290A mutant", "value": "37.0±11.0", "unit": "%"}]}
{"compound": "CC[C@H](C)[C@H]1O[C@]2(CC[C@@H]1C)C[C@@H]1C[C@@H](C/C=C(\\C)[C@@H](O[C@H]3C[C@H](OC)[C@@H](O[C@H]4C[C@H](OC)[C@@H](O)[C@H](C)O4)[C@H](C)O3)[C@@H](C)/C=C/C=C3\\CO[C@@H]4[C@H](O)C(C)=C[C@@H](C(=O)O1)[C@]34O)O2", "note": "[IVM, ivermectin]", "values": [{"measurement": "Fold incr. Imax", "setting": "rP2X4R L206A mutant; [5]", "value": "1.7 ± 0.2", "unit": "fold"}, {"measurement": "Fold incr. Imax", "setting": "rP2X4R L214A mutant; [5]", "value": "3.7 ± 0.7", "unit": "fold"}, {"measurement": "Fold incr. Imax", "setting": "rP2X4R P290A mutant; [5]", "value": "3.7 ± 0.2", "unit": "fold"}]}
{"compound": "Nc1ncnc2c1ncn2C1OC(COP(=O)(O)CP(=O)(O)OP(=O)(O)O)C(O)C1O", "note": "(stereo not drawn) [α,β-meATP, α,β-methyleneadenosine 5′-triphosphate]", "values": [{"measurement": "relative responsiveness", "setting": "rP2X4R L206A mutant", "value": "27.5±2.5", "unit": "%"}, {"measurement": "relative responsiveness", "setting": "rP2X4R L214A mutant", "value": "6.5±1.5", "unit": "%"}, {"measurement": "relative responsiveness", "setting": "rP2X4R P290A mutant", "value": "17.8±2.4", "unit": "%"}]}
